Measured values taken from patent US20200039930A1, “PROLINE AMIDE COMPOUNDS AND THEIR AZETIDINE ANALOGUES CARRYING A SPECIFICALLY SUBSTITUTED BENZYL RADICAL” (AbbVie Deutschland GmbH & Co. KG, priority 2017, published 2020).

What was measured:
5-HT2C receptor = biological target: T1, 5-HT2C receptor (Homo sapiens, UniProt P28335); test: Human 5-HT2C functional assay (beta-arrestin2 recruitment, U2OS_HTR2C_β-Arrestin cells); format: cell-based; settings: compounds used as acid addition salts; for EC50: U2OS_HTR2C_β-Arrestin cells, 1.5 h incubation, read-out: EC50 5-HT2C (potency in functional assay); for Emax: relative efficacy vs response to 10 µM 5-HT or maximal effect of 5-HT (100%)
T1 construct: host or cells: U2OS
T1 sequence (P28335 33-458): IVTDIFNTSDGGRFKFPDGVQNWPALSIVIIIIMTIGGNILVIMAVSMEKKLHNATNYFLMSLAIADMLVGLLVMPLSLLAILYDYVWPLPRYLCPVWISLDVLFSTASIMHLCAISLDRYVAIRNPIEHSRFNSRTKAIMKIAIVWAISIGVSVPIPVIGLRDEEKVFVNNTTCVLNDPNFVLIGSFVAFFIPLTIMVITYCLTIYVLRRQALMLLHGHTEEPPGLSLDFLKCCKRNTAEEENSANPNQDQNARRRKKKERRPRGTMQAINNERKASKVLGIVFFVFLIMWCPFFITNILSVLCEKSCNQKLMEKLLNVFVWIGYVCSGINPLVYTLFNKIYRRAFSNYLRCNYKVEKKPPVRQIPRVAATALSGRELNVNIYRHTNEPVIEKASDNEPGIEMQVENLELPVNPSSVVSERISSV
T1 sequence (P32121 whole entry partner): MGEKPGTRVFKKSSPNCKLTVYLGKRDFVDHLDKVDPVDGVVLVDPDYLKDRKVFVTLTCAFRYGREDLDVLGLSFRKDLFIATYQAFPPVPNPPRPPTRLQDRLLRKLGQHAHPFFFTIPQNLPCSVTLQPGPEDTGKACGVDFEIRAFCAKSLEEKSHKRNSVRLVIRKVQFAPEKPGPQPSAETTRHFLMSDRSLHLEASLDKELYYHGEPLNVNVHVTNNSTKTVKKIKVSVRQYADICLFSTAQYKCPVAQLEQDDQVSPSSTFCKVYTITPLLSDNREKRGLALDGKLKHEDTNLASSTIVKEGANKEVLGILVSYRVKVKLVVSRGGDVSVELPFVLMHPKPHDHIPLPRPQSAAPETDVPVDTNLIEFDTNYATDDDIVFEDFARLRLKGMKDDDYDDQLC
Procedure: The functional activity of compounds of formula I was assayed by incubation with U2OS_HTR2C_β-Arrestin cells (DiscoverX, 93-0289C3) to induce beta-arrestin2 recruitment to the 5-HT2C receptor. The agonist-induced recruitment and proximity of the receptor and beta-arrestin2 leads to complementation and formation of active β-galactosidase. The enzyme complementation results in enzyme activity, which is measured following the termination of the agonist incubation using DiscoveRx's detection reagent, which contains a chemiluminescent substrate which produces a high intensity signal. Cells were plated and a medium-change to a 1% serum containing medium was performed 24 h later. The next day, test compounds were added and incubated for 1.5 h before addition of detection reagent.
The response produced was measured and compared with the response produced by 10 [mu]M 5-HT or the maximal effect induced by 5-HT (defined as 100%) to which it was expressed as a percentage response (relative efficacy). Dose response curves were con-structed using Graphpad Prism (Graph Software Inc.) or using in house adapted software using a 4 parameter dose response model with variable slope (fit=(Bottom+(Top−Bottom)/(1+10^((LogEC50−x)*Hill Slope))res=(y−fit)). Results are compiled in the table below.

[1] = Metabolic stability: unbound intrinsic clearance in liver microsomes; format: in vitro ADME; settings: rat; liver microsomes 0.25 mg protein/mL, 0.5 μM compound, pH 7.4, 37° C.; Cl int unbound=Cl int/fu mic; compounds used as acid addition salts; read-out: Cl int, mic unb. (r) (unbound intrinsic clearance)
Procedure: Samples of the tested compounds (0.5 μM) were preincubated together with rat liver microsomes (0.25 mg of microsomal protein/mL) in 0.05 M potassium phosphate buffer of pH 7.4 in microtiter plates at 37° C. for 5 minutes. The reaction was started by adding NADPH (1.0 mM). After 0, 5, 10, 15, 20 and 30 minutes, an aliquot was removed, the reaction was cooled and stopped by adding twice the amount of quench solution consisting of acetonitrile/methanol 1:1, and containing […] carbutamide as internal standard. The samples were frozen until analyzed. The remaining concentration of undegraded test substance was determined by liquid chromatography-tandem mass spectrometry (LC-MS/MS). The half-life (t1/2) was determined from the gradient of the ratio of the signal of (test substance/internal standard)/unit time plot, allowing the calculation of the half-life of the test substance, assuming first order kinetics, from the decrease in the concentration of the compound with time. The microsomal clearance (mClint) was calculated as follows: mClint=((ln(2)/t 1/2)/Microsomal Protein Concentration (mg/ml))*1000, leading to the unit of uL/min/mg. The scaled clearance (mClin_scaled) was calculated as mCLint_scaled=m CLint*(Microsomal Yield (mg/kg BW))/1000000*60, leading to the units L/h/kg. The Microsomal Yield is defined by the specifics of the used microsomes. Calculations were modified from refer-ences: Di, The Society for Biomolecular Screening, 2003, 453-462; Obach, D M D, 1999 vol 27. N 11, 1350-1359.
A suspension of 0.25 mg/ml microsomal protein spiked with 0.5 μM of test compound was pipetted on one side of a HTDialysis device (HTDialysis LLC,37 Ledgewood Drive, Gales Fery Conn. 06335) separated by a membrane with a MWcut off 12-14 K. 50 mM K-Phosphate buffer (pH 7.4) was added on the other side of the well. After incubation at 37° C. for 4 h while shaking at 150 rpm, aliquots of both sides were taken, quenched with MeOH/ACN 1:1 and 0.2 μM of internal standard and frozen until analy-sis by LCMSMS.
Cl int unbound=Cl int/fu mic
The compounds were used in form of their respective acid addition salts.

## COc1cc(OCCC(F)(F)C(F)(F)F)c(F)cc1CNC(=O)[C@@H]1CCCN1 [Example 24, (2S)—N-[[5-Fluoro-2-methoxy-4-(3,3,4,4,4-pentafluorobutoxy)phenyl]methyl]-pyrrolidine-2-carboxamide]
5-HT2C receptor
  EC50: 5 to 15 nM
  Emax: > 70%
[1]
  CLint scaled at 0.5 μM: < 500 mL/min/kg

## COc1cc(OCc2cc(F)cc(F)c2F)c(F)cc1CNC(=O)[C@@H]1CCCN1 [Example 2, (2S)—N-[[5-Fluoro-2-methoxy-4-[(2,3,5-trifluorophenyl)methoxy]phenyl]methyl]-pyrrolidine-2-carboxamide]
5-HT2C receptor
  EC50: 5 to 15 nM
  Emax: > 70%
[1]
  CLint scaled at 0.5 μM: 1330 to 4170 mL/min/kg

## COc1cc(OCc2ccc(C(F)(F)F)o2)c(F)cc1CNC(=O)[C@@H]1CCCN1 [Example 15, (2S)—N-[[5-fluoro-2-methoxy-4-[[5-(trifluoromethyl)-2-furyl]methoxy]phenyl]-methyl]pyrrolidine-2-carboxamide]
5-HT2C receptor
  EC50: 5 to 15 nM
  Emax: > 70%
[1]
  CLint scaled at 0.5 μM: 1330 to 4170 mL/min/kg

## COc1cc(OC2CC(F)(F)C2)c(F)cc1CNC(=O)[C@@H]1CCCN1 [Example 28, (2S)—N-[[4-(3,3-Difluorocyclobutoxy)-5-fluoro-2-methoxy-phenyl]methyl]-pyrrolidine-2-carboxamide]
5-HT2C receptor
  EC50: 5 to 15 nM
  Emax: > 70%
[1]
  CLint scaled at 0.5 μM: < 500 mL/min/kg

## COc1cc(OCCC(F)(F)F)c(F)cc1CNC(=O)[C@@H]1CCCN1 [Example 19, (2S)—N-[[5-Fluoro-2-methoxy-4-(3,3,3-trifluoropropoxy)phenyl]methyl]pyrrolidine-2-carboxamide]
5-HT2C receptor
  EC50: 15 to 30 nM
  Emax: > 70%
[1]
  CLint scaled at 0.5 μM: < 500 mL/min/kg

## COc1cc(OCC2CC(F)(F)C2(F)F)c(F)cc1CNC(=O)[C@@H]1CCCN1 (stereo partly drawn) [Example 30, (2S)—N-[[5-Fluoro-2-methoxy-4-[(2,2,3,3-tetrafluorocyclobutyl)methoxy]phenyl]-methyl]pyrrolidine-2-carboxamide]
5-HT2C receptor
  EC50: < 5 nM
  Emax: > 70%
[1]
  CLint scaled at 0.5 μM: < 500 mL/min/kg

## COc1cc(OCCCC(F)(F)F)c(F)cc1CNC(=O)[C@@H]1CCCN1 [Example 23, (2S)—N-[[5-Fluoro-2-methoxy-4-(4,4,4-trifluorobutoxy)phenyl]methyl]pyrrolidine-2-carboxamide]
5-HT2C receptor
  EC50: < 5 nM
  Emax: > 70%
[1]
  CLint scaled at 0.5 μM: < 500 mL/min/kg

## COc1cc(OC2CCC(F)(F)CC2)c(F)cc1CNC(=O)[C@@H]1CCCN1 [Example 18, (2S)—N-[[4-(4,4-Difluorocyclohexoxy)-5-fluoro-2-methoxy-phenyl]methyl]-pyrrolidine-2-carboxamide]
5-HT2C receptor
  EC50: 5 to 15 nM
  Emax: > 70%
[1]
  CLint scaled at 0.5 μM: < 500 mL/min/kg

## COc1cc(OCC(F)(F)C(F)C(F)(F)F)c(F)cc1CNC(=O)[C@@H]1CCCN1 (stereo partly drawn) [Example 21, (2S)—N-[[5-Fluoro-4-(2,2,3,4,4,4-hexafluorobutoxy)-2-methoxy-phenyl]methyl]-pyrrolidine-2-carboxamide]
5-HT2C receptor
  EC50: < 5 nM
  Emax: > 70%
[1]
  CLint scaled at 0.5 μM: < 500 mL/min/kg

## COc1cc(OCc2c(F)ccc(F)c2Cl)c(F)cc1CNC(=O)[C@@H]1CCCN1 [Example 7, (2S)—N-[[4-[(2-Chloro-3,6-difluoro-phenyl)methoxy]-5-fluoro-2-methoxy-phenyl]-methyl]pyrrolidine-2-carboxamide]
5-HT2C receptor
  EC50: 15 to 30 nM
  Emax: > 70%
[1]
  CLint scaled at 0.5 μM: 1330 to 4170 mL/min/kg

## COc1cc(O[C@H]2CC[C@H](C(F)(F)F)CC2)c(F)cc1CNC(=O)[C@@H]1CCN1 [Example 41, (2S)—N-[[5-Fluoro-2-methoxy-4-[trans 4-(trifluoromethyl)cyclohexoxy]phenyl]-methyl]azetidine-2-carboxamide]
5-HT2C receptor
  EC50: < 5 nM
  Emax: 50 to 70%
[1]
  CLint scaled at 0.5 μM: < 500 mL/min/kg

## COc1cc(OCc2cc(F)cc(F)c2)c(F)cc1CNC(=O)[C@@H]1CCCN1 [Example 5, (2S)—N-[[4-[(3,5-Difluorophenyl)methoxy]-5-fluoro-2-methoxy-phenyl]methyl]-pyrrolidine-2-carboxamide]
5-HT2C receptor
  EC50: < 5 nM
  Emax: > 70%
[1]
  CLint scaled at 0.5 μM: 1330 to 4170 mL/min/kg

## COc1cc(OCCc2ccccc2F)c(F)cc1CNC(=O)[C@@H]1CCCN1 [Example 13, (2S)—N-[[5-Fluoro-4-[2-(2-fluorophenyl)ethoxy]-2-methoxy-phenyl]methyl]-pyrrolidine-2-carboxamide]
5-HT2C receptor
  EC50: < 5 nM
  Emax: > 70%
[1]
  CLint scaled at 0.5 μM: 1330 to 4170 mL/min/kg

## COc1cc(O[C@H]2CC[C@H](C(F)(F)F)CC2)c(F)cc1CNC(=O)[C@@H]1CCCN1 [Example 33, (S)—N-(5-Fluoro-4-((trans-4-trifluoromethyl-cyclohexyl)oxy)-2-methoxybenzyl)-pyrrolidine-2-carboxamide]
5-HT2C receptor
  EC50: < 5 nM
  Emax: > 70%
[1]
  CLint scaled at 0.5 μM: < 500 mL/min/kg

## COc1cc(OCc2ccc(F)cc2)c(F)cc1CNC(=O)[C@@H]1CCCN1 [Example 3, (2S)—N-[[5-Fluoro-4-[(4-fluorophenyl)methoxy]-2-methoxy-phenyl]methyl]-pyrrolidine-2-carboxamide]
5-HT2C receptor
  EC50: < 5 nM
  Emax: > 70%
[1]
  CLint scaled at 0.5 μM: 1330 to 4170 mL/min/kg

## COc1cc(O[C@H]2CC[C@@H](F)CC2)c(F)cc1CNC(=O)[C@@H]1CCCN1 [Example 16, (S)—N-(5-Fluoro-4-((cis-4-fluorocyclohexyl)oxy)-2-methoxybenzyl)pyrrolidine-2-carboxamide]
5-HT2C receptor
  EC50: 15 to 30 nM
  Emax: > 70%
[1]
  CLint scaled at 0.5 μM: < 500 mL/min/kg

## COc1cc(OCC(F)(F)C(F)F)c(F)cc1CNC(=O)[C@@H]1CCCN1C [Example 36, (2S)—N-[[5-Fluoro-2-methoxy-4-(2,2,3,3-tetrafluoropropoxy)phenyl]methyl]-1-methyl-pyrrolidine-2-carboxamide]
5-HT2C receptor
  EC50: 15 to 30 nM
  Emax: > 70%
[1]
  CLint scaled at 0.5 μM: 500 to 1330 mL/min/kg

## COc1cc(OCC2CC2(F)F)c(F)cc1CNC(=O)[C@@H]1CCCN1 (stereo partly drawn) [Example 26, (2S)—N-[[4-[(2,2-Difluorocyclopropyl)methoxy]-5-fluoro-2-methoxy-phenyl]-methyl]pyrrolidine-2-carboxamide]
5-HT2C receptor
  EC50: 15 to 30 nM
  Emax: > 70%
[1]
  CLint scaled at 0.5 μM: < 500 mL/min/kg

## COc1cc(OCc2ccnc(F)c2)c(F)cc1CNC(=O)[C@@H]1CCCN1 [Example 8, (2S)—N-[[5-fluoro-4-[(2-fluoro-4-pyridyl)methoxy]-2-methoxy-phenyl]methyl]-pyrrolidine-2-carboxamide]
5-HT2C receptor
  EC50: 15 to 30 nM
  Emax: > 70%
[1]
  CLint scaled at 0.5 μM: < 500 mL/min/kg

## COc1cc(O[C@H]2CC[C@H](C(F)(F)F)CC2)c(F)cc1CNC(=O)[C@@H]1CCCN1C [Example 39, (2S)—N-(5-Fluoro-2-methoxy-4-((trans-4-(trifluoromethyl)cyclohexyl)oxy)benzyl)-1-methyl-pyrrolidine-2-carboxamide]
5-HT2C receptor
  EC50: 15 to 30 nM
  Emax: > 70%
[1]
  CLint scaled at 0.5 μM: 500 to 1330 mL/min/kg

## COc1cc(OCCc2ccc(F)cc2)c(F)cc1CNC(=O)[C@@H]1CCCN1 [Example 11, (2S)—N-[[5-Fluoro-4-[2-(4-fluorophenyl)ethoxy]-2-methoxy-phenyl]methyl]-pyrrolidine-2-carboxamide]
5-HT2C receptor
  EC50: 5 to 15 nM
  Emax: > 70%
[1]
  CLint scaled at 0.5 μM: 1330 to 4170 mL/min/kg
